PubChem BioAssay AID256 (DTP/NCI, 2004)
Several values for one entry are separate records, joined by “and”; a condition that tells them apart may be missing. Identical values can stand only once. Toxic doses and inconclusive results are not listed. Rule for the calls: active = survival T/C of 150% or more; inactive = T/C below 125% in these data.

System: CD2F1 mice, L1210 leukemia ip, survival T/C
Test: NCI In Vivo Anticancer Drug Screen. Data for tumor model L1210 Leukemia (intraperitoneal) in CD2F1 (CDF1) mice
Conditions: higher = longer survival
In short: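 Tumor-bearing mice (transplanted tumor) were split into treated and vehicle control groups, and the measured endpoint of each treated group was divided by that of its vehicle controls.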

[1] = endpoint: mean survival time, dose: 100.0 mg/kg/injection, schedule: Q04DX003 (ip), vehicle: saline with Tween-80
[2] = endpoint: mean survival time, dose: 200.0 mg/kg/injection, schedule: Q04DX003 (ip), vehicle: saline with Tween-80
[3] = endpoint: mean survival time, dose: 400.0 mg/kg/injection, schedule: Q04DX003 (ip), vehicle: saline with Tween-80
[4] = endpoint: mean survival time, dose: 100.0 mg/kg/injection, schedule: Q04DX002 (ip), vehicle: saline with Tween-80
[5] = endpoint: mean survival time, dose: 200.0 mg/kg/injection, schedule: Q04DX002 (ip), vehicle: saline with Tween-80
[6] = endpoint: mean survival time, dose: 400.0 mg/kg/injection, schedule: Q04DX002 (ip), vehicle: saline with Tween-80
[7] = endpoint: mean survival time, dose: 100.0 mg/kg/injection, schedule: Q01DX009 (ip), vehicle: saline with Tween-80

Measured: T/C

O=P1(OCCBr)NCCCO1 (stereo not given)
inactive: endpoint: mean survival time, dose: 62.5 mg/kg/injection, schedule: Q01DX001 (ip), vehicle: water 95 % of control | endpoint: mean survival time, dose: 125.0 mg/kg/injection, schedule: Q01DX001 (ip), vehicle: water 101 % of control | endpoint: mean survival time, dose: 250.0 mg/kg/injection, schedule: Q01DX001 (ip), vehicle: water 104 % of control | endpoint: mean survival time, dose: 500.0 mg/kg/injection, schedule: Q01DX001 (ip), vehicle: water 98 % of control | endpoint: mean survival time, dose: 750.0 mg/kg/injection, schedule: Q01DX001 (ip), vehicle: water 101 % of control

CCCC(C)(COC(N)=O)COC(N)=O
inactive: [1] 96 % of control | [2] 98 % of control | [3] 96 % of control

O=C(O)c1cc([N+](=O)[O-])ccc1Br
inactive: [1] 103 % of control | [2] 105 % of control | [3] 95 % of control

O=C1OC(=O)C2C3C=CC(O3)C12 (stereo not given)
inactive: endpoint: mean survival time, dose: 10.0 mg/kg/injection, schedule: Q01DX009 (ip), vehicle: saline with Tween-80 100 % of control | endpoint: mean survival time, dose: 12.5 mg/kg/injection, schedule: Q01DX009 (ip), vehicle: saline 105 % of control | endpoint: mean survival time, dose: 12.5 mg/kg/injection, schedule: Q04DX003 (ip), vehicle: saline 95 % of control | endpoint: mean survival time, dose: 20.0 mg/kg/injection, schedule: Q01DX009 (ip), vehicle: saline with Tween-80 98 % of control | endpoint: mean survival time, dose: 25.0 mg/kg/injection, schedule: Q01DX009 (ip), vehicle: saline 94 % of control | endpoint: mean survival time, dose: 25.0 mg/kg/injection, schedule: Q04DX002 (ip), vehicle: saline 104 % of control | endpoint: mean survival time, dose: 25.0 mg/kg/injection, schedule: Q04DX003 (ip), vehicle: saline 98 % of control | endpoint: mean survival time, dose: 50.0 mg/kg/injection, schedule: Q01DX009 (ip), vehicle: saline 102 % of control | endpoint: mean survival time, dose: 50.0 mg/kg/injection, schedule: Q04DX002 (ip), vehicle: saline 104 % of control | endpoint: mean survival time, dose: 50.0 mg/kg/injection, schedule: Q04DX003 (ip), vehicle: saline 95 % of control | endpoint: mean survival time, dose: 100.0 mg/kg/injection, schedule: Q04DX002 (ip), vehicle: saline 97 % of control and 98 % of control

CCCCCCCCOc1ccc(Cl)cc1Cl
inactive: [4] 96 % of control | [5] 104 % of control | [6] 104 % of control

Nc1nc(CCCCc2ccccc2)cc(=O)[nH]1
inactive: [1] 93 % of control | [2] 89 % of control | [3] 91 % of control

Sc1ccc(Cl)cc1
inactive: endpoint: mean survival time, dose: 100.0 mg/kg/injection, schedule: Q01DX001 (ip), vehicle: saline with Tween-80 98 % of control | endpoint: mean survival time, dose: 200.0 mg/kg/injection, schedule: Q01DX001 (ip), vehicle: saline with Tween-80 98 % of control | endpoint: mean survival time, dose: 400.0 mg/kg/injection, schedule: Q01DX001 (ip), vehicle: saline with Tween-80 102 % of control

Cc1c([N+](=O)[O-])cc(C(C)(C)C)c(OS(C)(=O)=O)c1[N+](=O)[O-]
inactive: [4] 105 % of control

O=C(NC(O)C(Cl)(Cl)Cl)C(Cl)(Cl)Cl (stereo not given)
inactive: [7] 89 % of control | [1] 104 % of control | endpoint: mean survival time, dose: 200.0 mg/kg/injection, schedule: Q01DX009 (ip), vehicle: saline with Tween-80 100 % of control | [2] 105 % of control | endpoint: mean survival time, dose: 400.0 mg/kg/injection, schedule: Q01DX009 (ip), vehicle: saline with Tween-80 107 % of control | [3] 104 % of control

NC(=O)C(Cc1ccccc1)NC(=O)c1ccccc1 (stereo not given)
inactive: [7] 91 % of control

O=C(O)/C=C\C(=O)OCc1ccc(Cl)cc1Cl
inactive: [7] 106 % of control | [1] 91 % of control | [2] 101 % of control | [3] 95 % of control

CCCCCCCCOc1ccc(Cl)cc1
inactive: [4] 90 % of control | [5] 90 % of control | [6] 93 % of control

CCCCOC(=S)S.[Zn+2]
inactive: [1] 94 % of control | [2] 108 % of control | [3] 89 % of control

COC(=O)C(CSC(c1ccccc1)(c1ccccc1)c1ccccc1)NC(=O)CCNC(=O)OCc1ccccc1 (stereo not given)
inactive: endpoint: mean survival time, dose: 12.5 mg/kg/injection, schedule: Q01DX009 (ip), vehicle: water 93 % of control | endpoint: mean survival time, dose: 25.0 mg/kg/injection, schedule: Q01DX009 (ip), vehicle: water 91 % of control | endpoint: mean survival time, dose: 50.0 mg/kg/injection, schedule: Q01DX009 (ip), vehicle: water 90 % of control | endpoint: mean survival time, dose: 100.0 mg/kg/injection, schedule: Q01DX009 (ip), vehicle: water 90 % of control

COc1ccc(C2(C)OCCCC2([NH-])C[NH-])cc1.[Cl][Pt+2][Cl] (stereo not given)
inactive: endpoint: median survival time, dose: 10.0 mg/kg/injection, schedule: Q04DX003 (ip), vehicle: saline 105 % of control | endpoint: median survival time, dose: 20.0 mg/kg/injection, schedule: Q04DX003 (ip), vehicle: saline 103 % of control | endpoint: median survival time, dose: 40.0 mg/kg/injection, schedule: Q04DX003 (ip), vehicle: saline 105 % of control | endpoint: median survival time, dose: 80.0 mg/kg/injection, schedule: Q04DX003 (ip), vehicle: saline with Tween-80 100 % of control | endpoint: median survival time, dose: 80.0 mg/kg/injection, schedule: Q04DX003 (ip), vehicle: saline 95 % of control | endpoint: median survival time, dose: 160.0 mg/kg/injection, schedule: Q04DX003 (ip), vehicle: saline with Tween-80 110 % of control | endpoint: median survival time, dose: 320.0 mg/kg/injection, schedule: Q04DX003 (ip), vehicle: saline with Tween-80 115 % of control

CCCCOC(=O)C(C)(C)O
inactive: [1] 96 % of control | [2] 102 % of control | [3] 98 % of control

NCc1cn(C2OC(CO)C(O)C2O)c2nc[nH]c(=O)c12 (stereo not given)
inactive: endpoint: mean survival time, dose: 25.0 mg/kg/injection, schedule: Q01DX009 (ip), vehicle: distilled water + Tween-80 103 % of control | endpoint: mean survival time, dose: 50.0 mg/kg/injection, schedule: Q01DX009 (ip), vehicle: distilled water + Tween-80 103 % of control | endpoint: mean survival time, dose: 100.0 mg/kg/injection, schedule: Q01DX009 (ip), vehicle: distilled water + Tween-80 101 % of control | endpoint: mean survival time, dose: 200.0 mg/kg/injection, schedule: Q01DX009 (ip), vehicle: distilled water + Tween-80 98 % of control | endpoint: mean survival time, dose: 400.0 mg/kg/injection, schedule: Q01DX009 (ip), vehicle: distilled water + Tween-80 115 % of control

C=CCC(c1ccccc1)(c1ccccc1)c1ccccc1
inactive: endpoint: mean survival time, dose: 75.0 mg/kg/injection, schedule: Q01DX001 (ip), vehicle: saline 93 % of control | endpoint: mean survival time, dose: 150.0 mg/kg/injection, schedule: Q01DX001 (ip), vehicle: saline 95 % of control | endpoint: mean survival time, dose: 300.0 mg/kg/injection, schedule: Q01DX001 (ip), vehicle: saline 97 % of control

CC(=NC(c1ccccc1)c1ccccc1)N(C)C
inactive: endpoint: mean survival time, dose: 25.0 mg/kg/injection, schedule: Q04DX002 (ip), vehicle: saline with Tween-80 102 % of control | endpoint: mean survival time, dose: 50.0 mg/kg/injection, schedule: Q04DX002 (ip), vehicle: saline with Tween-80 98 % of control | [4] 102 % of control

COc1cccc2c1C(=O)c1c(O)c3c(c(O)c1C2=O)CC(O)(/C(C)=N/NC(=O)CCCCC(=O)N/N=C(\C)C1(O)Cc2c(O)c4c(c(O)c2C(OC2CC(N)C(O)C(C)O2)C1)C(=O)c1c(OC)cccc1C4=O)CC3OC1CC(N)C(O)C(C)O1 (stereo not given)
active: endpoint: median survival time, dose: 6.25 mg/kg/injection, schedule: Q01DX009 (ip), vehicle: water 153 % of control
inactive: endpoint: median survival time, dose: 1.5 mg/kg/injection, schedule: Q01DX009 (ip), vehicle: water 116 % of control and 123 % of control | endpoint: median survival time, dose: 3.0 mg/kg/injection, schedule: Q01DX009 (ip), vehicle: water 121 % of control | endpoint: median survival time, dose: 12.5 mg/kg/injection, schedule: Q01DX009 (ip), vehicle: water 108 % of control | endpoint: median survival time, dose: 24.0 mg/kg/injection, schedule: Q01DX009 (ip), vehicle: water 97 % of control | endpoint: median survival time, dose: 25.0 mg/kg/injection, schedule: Q01DX009 (ip), vehicle: water 87 % of control

N#CC(C#N)=Cc1ccc(Cl)cc1
inactive: endpoint: mean survival time, dose: 25.0 mg/kg/injection, schedule: Q04DX003 (ip), vehicle: saline with Tween-80 89 % of control | endpoint: mean survival time, dose: 50.0 mg/kg/injection, schedule: Q04DX003 (ip), vehicle: saline with Tween-80 101 % of control | [1] 86 % of control and 98 % of control

O=C(N/N=C/c1ccccc1)c1ccc(Cl)cc1
inactive: endpoint: mean survival time, dose: 100.0 mg/kg/injection, schedule: Q01DX009 (ip), vehicle: Klucel (hydroxypropylcellulose) (HPC) 94 % of control | endpoint: mean survival time, dose: 200.0 mg/kg/injection, schedule: Q01DX009 (ip), vehicle: Klucel (hydroxypropylcellulose) (HPC) 97 % of control | endpoint: mean survival time, dose: 400.0 mg/kg/injection, schedule: Q01DX009 (ip), vehicle: Klucel (hydroxypropylcellulose) (HPC) 101 % of control

CCNNC(=O)[C@@H]1[C@H](c2cc(OC)c(OC)c(OC)c2)c2cc3c(cc2[C@H](O)[C@H]1CO)OCO3
inactive: endpoint: mean survival time, dose: 7.8 mg/kg/injection, schedule: Q01DX Z (ip), vehicle: saline 100 % of control | endpoint: mean survival time, dose: 15.6 mg/kg/injection, schedule: Q01DX Z (ip), vehicle: saline 96 % of control | endpoint: mean survival time, dose: 31.3 mg/kg/injection, schedule: Q01DX Z (ip), vehicle: saline 103 % of control | endpoint: mean survival time, dose: 62.5 mg/kg/injection, schedule: Q01DX Z (ip), vehicle: saline 111 % of control
